Assay results published in PMC8876231, “Analogues of Natural Chalcones as Efficient Inhibitors of AKR1C3” (Metabolites, 2022).
Where “and” joins values, the source holds several entries; their conditions need not be identical. Equal entries are not always repeated.

Columns and labels:
Format in all cases: biochemical
AKR1C3 = biological target: T1, AKR1C3 (Homo sapiens, UniProt P42330); assay: AKR1C3 enzymatic inhibition assay (∆4-androstene-3,17-dione to testosterone); conditions: for IC50: one-site ligand binding fit
T1 construct: GST (own knowledge: pGEX vectors encode N-terminal GST); made in house; host or cells: E. coli BL21 DE3 Codon Plus RP, lysate
T1 sequence (P42330 1-323): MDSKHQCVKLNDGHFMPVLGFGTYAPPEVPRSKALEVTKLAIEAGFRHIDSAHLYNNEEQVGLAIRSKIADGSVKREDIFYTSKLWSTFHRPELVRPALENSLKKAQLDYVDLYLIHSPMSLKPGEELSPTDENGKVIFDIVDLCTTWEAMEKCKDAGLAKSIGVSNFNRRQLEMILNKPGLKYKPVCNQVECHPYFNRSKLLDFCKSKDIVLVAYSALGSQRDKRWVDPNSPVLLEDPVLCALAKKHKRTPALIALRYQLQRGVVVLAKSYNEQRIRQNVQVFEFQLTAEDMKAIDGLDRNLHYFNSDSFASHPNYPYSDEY
Text: (§1) For enzymatic assays and inhibitor testing, all enzymes were cloned into bacterial or mammalian expression vectors. AKR1C3 and the human hydroxysteroid dehydrogenases HSD17B1, HSD17B2, HSD17B4 (SDR domain), HSD17B7, and HSD17B10 were cloned into a pGEX vector as described in [71, 72]. The coding sequences for AKR1C1, AKR1C2, and AKR1C4 were cloned by Gateway technology into the pcDNA3-N-MycDest vector according to the manufacturer’s instructions (Life Technologies, Carlsbad, CA, USA). The p11 plasmid coding for HSD17B14 (S205 variant) was a gift from Udo Opperman SGC Oxford, UK. For assays with HSD17B3, HEK293 cells stably expressing HSD17B3 were used. Enzymes were expressed in E. coli BL21 DE3 or E. coli BL21 DE3 Codon Plus RP (Stratagene, San Diego, CA, USA) or in HEK293 cells as described in [71, 72, 73]. Bacterial and cell pellets were stored at −20 °C and −80 °C, respectively, until use.
(§2) Inhibition assays were carried out as described in [71, 74]. […] For a detailed assay setup, see Supplementary Table S6. The incubation at 37 °C was stopped with 0.21 M ascorbic acid in methanol:acetic acid 99:1 (v:v) after the time needed to convert approximately 30% of the substrate in a control assay with 1% DMSO, without inhibitor candidate. Substrates and products were extracted from the reaction mixture by solid-phase extraction using C18 cartridges (Phenomenex, Aschaffenburg, Germany) and separated by RP–HPLC in a Beckman–Coulter HPLC Gold system, using the Luna 5 µm C18(2), 125 × 4.0 mm column (Phenomenex). The mobile phases used were H2O:ACN (57:43 (v:v); for assays of estrone (E1) to oestradiol (E2), E2 to E1, and ∆4-androstene-3,17-dione to testosterone conversion), H2O:ACN (49:51 (v:v); for assays of progesterone to 20α-hydroxyprogesterone conversion), and H2O:MeOH (35:65 (v:v) for assays of dihydrotestosterone (DHT) to 3α-androstanediol conversion) at a flow rate of 1 mL/min. Radioactivity was detected by online scintillation counting by using a radioactivity monitor (LB506D, Berthold Technologies, Bad Wildbad, Germany). Conversion of substrates to products was determined by integration of the peak area of the substrate and product peaks in percent. For calculation of inhibition, the conversion of control assay (assay without inhibitor) was set to 0% inhibition. All assays were run in triplicates, and mean values ± SD are reported.
For the determination of IC50 values, percent inhibition values were fitted using the Enzyme Kinetics module of SigmaPlot 13.0 and the one-site ligand-binding model according to the formula f = Bmax * abs(x)/(Kd + abs(x)).
(§3) Table S6: Activity assay setup […]
(§4) E1: estrone; E2: 17β-estradiol, A: Δ4-androstene-3,17-dione; T: testosterone, P: progesterone, 20αOHP: 20α-hydroxyprogesterone, DHT: dihydrotestosterone, 3α-Adiol: 3α-androstanediol, NaPi: 100 mM Na-phosphate buffer; PI: C0mplete protease inhibitor (Roche);. E.coli - Expression in E.coli BL21 DE3 Codon Plus RP except E.coli BL21 DE3 […]
(§5) application to antiparasitic and natural product synthesis. Eur J Org Chem […]
(§6) Synthesis of Xanthohumol analogues and discovery of potent thioredoxin reductase inhibitor as potential anticancer agent. J Med Chem 2015, 58,

HSD17B2 = biological target: T2, HSD17B2 (Homo sapiens, UniProt P37059); assay: HSD17B2 inhibition assay (oestradiol to estrone); conditions: 10 µM compound; mean ± SD
T2 construct: GST (own knowledge: pGEX vectors encode N-terminal GST); made in house; host or cells: E. coli BL21 DE3 Codon Plus RP
T2 sequence (P37059 1-387): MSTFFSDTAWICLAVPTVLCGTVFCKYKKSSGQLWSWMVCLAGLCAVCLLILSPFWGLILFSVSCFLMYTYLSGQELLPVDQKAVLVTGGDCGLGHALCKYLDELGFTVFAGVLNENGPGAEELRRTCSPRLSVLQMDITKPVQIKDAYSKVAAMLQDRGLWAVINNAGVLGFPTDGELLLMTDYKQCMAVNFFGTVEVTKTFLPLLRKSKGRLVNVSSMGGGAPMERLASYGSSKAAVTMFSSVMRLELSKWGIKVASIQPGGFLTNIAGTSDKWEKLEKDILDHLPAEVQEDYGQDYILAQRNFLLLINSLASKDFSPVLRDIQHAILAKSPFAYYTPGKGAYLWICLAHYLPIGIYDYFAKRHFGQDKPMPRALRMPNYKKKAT
Text: as §1, §2, §3, §4, §5, §6

HSD17B7 = biological target: T3, HSD17B7 (Homo sapiens, UniProt P56937); assay: HSD17B7 inhibition assay (estrone to oestradiol); conditions: 10 µM compound; mean ± SD
T3 construct: GST (own knowledge: pGEX vectors encode N-terminal GST); made in house; host or cells: E. coli BL21 DE3 Codon Plus RP
T3 sequence (P56937 1-341): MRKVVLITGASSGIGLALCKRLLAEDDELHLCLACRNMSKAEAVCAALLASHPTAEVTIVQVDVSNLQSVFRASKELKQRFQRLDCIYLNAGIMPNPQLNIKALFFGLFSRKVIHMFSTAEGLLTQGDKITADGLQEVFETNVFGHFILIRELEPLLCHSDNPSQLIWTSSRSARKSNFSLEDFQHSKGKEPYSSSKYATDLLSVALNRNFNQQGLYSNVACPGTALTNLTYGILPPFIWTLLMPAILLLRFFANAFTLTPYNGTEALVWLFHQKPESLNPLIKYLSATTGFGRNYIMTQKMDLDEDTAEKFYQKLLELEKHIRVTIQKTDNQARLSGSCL
Text: as §1, §2, §3, §4, §5, §6

HSD17B10 = biological target: T4, HSD17B10 (Homo sapiens, UniProt Q99714); assay: HSD17B10 inhibition assay (oestradiol to estrone); conditions: 10 µM compound; mean ± SD
T4 construct: GST (own knowledge: pGEX vectors encode N-terminal GST); made in house; host or cells: E. coli BL21 DE3 Codon Plus RP
T4 sequence (Q99714 1-261): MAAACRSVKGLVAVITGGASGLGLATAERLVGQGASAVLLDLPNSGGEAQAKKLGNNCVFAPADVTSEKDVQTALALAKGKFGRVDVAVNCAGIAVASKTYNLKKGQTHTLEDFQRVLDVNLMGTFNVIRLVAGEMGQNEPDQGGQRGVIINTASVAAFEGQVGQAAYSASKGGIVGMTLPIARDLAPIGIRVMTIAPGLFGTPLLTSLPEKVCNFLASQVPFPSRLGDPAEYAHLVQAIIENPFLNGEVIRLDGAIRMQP
Text: as §1, §2, §3, §4, §5, §6

[1] = 10 µM compound, ∆4-androstene-3,17-dione reduction, triplicates, mean ± SD, 10 µM
[2] = ∆4-androstene-3,17-dione reduction, mean ± SD
[3] = 10 µM compound, ∆4-androstene-3,17-dione reduction, triplicates, mean ± SD

| AKR1C3 Inhibition at 10 µM [%] (AKR1C3; [1]) | IC50 (AKR1C3; [2]) | Inhibition of HSD17B2 at 10 µM in % (HSD17B2) | Inhibition of HSD17B7 at 10 µM in % (HSD17B7) | Inhibition of HSD17B10 at 10 µM in % (HSD17B10) | inhibition at 10 µM (AKR1C3; [3]) | Fold more active than natural chalcone 18 (AKR1C3) (AKR1C3; compared with chalcone 18) | inhibition at 10 µM (HSD17B2) | inhibition at 10 µM (HSD17B7) | inhibition at 10 µM (HSD17B10) | SMILES | AKR1C3 Inhibition at 10 µM [%] (AKR1C3; [3]) |
| --- | --- | --- | --- | --- | --- | --- | --- | --- | --- | --- | --- |
| 47.3 ± 6.4% | 11.9 ± 2.03 µM | 10.4 ± 1.6% | 6.5 ± 6.7% | -0.5 ± 6.5% | – | – | – | – | – | COc1ccc(/C=C/C(=O)c2c(O)cc(O)cc2OC)cc1 [Compound 18] | – |
| > 75% and 78.1 ± 2.7% | 2.36 ± 0.54 µM | 29.6 ± 3.7% | 4.6 ± 4.4% | 2.2 ± 2.6% | – | – | – | – | – | COc1ccc(/C=C/C(=O)c2c(O)cc(O)cc2O)cc1 [Compound 19] | – |
| > 75% and 89.2 ± 6.3% | 1.94 ± 0.32 µM | 61.0 ± 0.9% | 3.8 ± 3.5% | -2.5 ± 0.7% | – | – | – | – | – | Cc1cccc(/C=C/C(=O)c2c(O)cc(O)cc2O)c1 [Compound 20] | – |
| > 75% and 87.9 ± 4.9% | 5.18 ± 1.64 µM | 44.2 ± 4.7% | 6.8 ± 4.7% | 8.0 ± 6.5% | – | – | – | – | – | Cc1ccc(/C=C/C(=O)c2c(O)cc(O)cc2O)cc1 [Compound 21] | – |
| – | 1.08 ± 0.27 µM | – | – | – | 90.9 ± 4.6% | 10 fold | 88.8% | 9.9 ± 4.7% | 5.2 ± 3.8% | O=C(/C=C/c1ccc(Cl)cc1Cl)c1c(O)cc(O)cc1O [Compound 23, 2,4-dichloro-2′,4′,6′-trihydroxychalcone] | – |

| SMILES | AKR1C3 Inhibition at 10 µM [%] (AKR1C3; [1]) | IC50 (AKR1C3; [2]) | Inhibition of HSD17B2 at 10 µM in % (HSD17B2) | Inhibition of HSD17B7 at 10 µM in % (HSD17B7) | Inhibition of HSD17B10 at 10 µM in % (HSD17B10) | inhibition at 10 µM (AKR1C3; [3]) | Fold more active than natural chalcone 18 (AKR1C3) (AKR1C3; compared with chalcone 18) | inhibition at 10 µM (HSD17B2) | inhibition at 10 µM (HSD17B7) | inhibition at 10 µM (HSD17B10) | AKR1C3 Inhibition at 10 µM [%] (AKR1C3; [3]) |
| --- | --- | --- | --- | --- | --- | --- | --- | --- | --- | --- | --- |
| COc1cc(O)cc(O)c1C(=O)/C=C/c1ccc(Cl)cc1Cl [Compound 25] | – | – | 12.7 ± 2.3% | 37.7 ± 11.4% | -0.5 ± 7.3% | – | – | – | – | – | 33.3 ± 6.0% |
